Our source for the MIC, HC50 and HC10 values is ChEMBL document CHEMBL5608163, “Structure modification of anoplin for fighting resistant bacteria” (Eur J Med Chem, 2024).

Converted amounts (≈) assume the structure as drawn. Square brackets hold non-standard residues; d marks the D form. Peptide text beside a SMILES is read from it. * marks the point of attachment. 2Nal = N[C@@H](Cc1ccc2ccccc2c1)C(=O)O; Pentadecanoyl = CCCCCCCCCCCCCCC(=O)*; NMeI = CC[C@H](C)[C@H](NC)C(=O)O; Tridecanoyl = CCCCCCCCCCCCC(=O)*; hIle = CC[C@H](C)C[C@H](N)C(=O)O; Cha = N[C@@H](CC1CCCCC1)C(=O)O; NMeL = CN[C@@H](CC(C)C)C(=O)O; Undecanoyl = CCCCCCCCCCC(=O)*; Nonanoyl = CCCCCCCCC(=O)* Bounds are passed on as bounds.

Data set [1] concerns Pseudomonas aeruginosa. The data set is described as follows: Antibacterial activity against Pseudomonas aeruginosa ATCC 27853 assessed as reduction in microbial growth incubated for 16 to 20 hrs by CLSI protocol based Muller Hinton broth assay. The class given is functional. The conditions noted are these: time 16-20 hrs.
Data set [2] concerns Staphylococcus aureus. Nature of the data set: Antibacterial activity against methicillin-resistant Staphylococcus aureus ATCC 33591 assessed as reduction in bacterial growth incubated for 18 hrs by agar dilution method. The class given is functional. In general terms: In agar dilution the substance is mixed into plates at graded concentrations.
The subject of a further data set is Enterococcus faecium. Nature of the data set: Antibacterial activity against vancomycin resistant Enterococcus faecium ATCC 700221 assessed as inhibition of bacterial growth incubated for 48 hrs by CLSI-based broth microdilution assay. The class given is functional. In general terms: Broth dilution looks for growth in wells or tubes with falling amounts of substance.

For data set [3], the system named is Escherichia coli. The data set is described as follows: Antibacterial activity against Escherichia coli ATCC 25922 assessed as reduction in microbial growth incubated for 16 to 20 hrs by CLSI protocol based Muller Hinton broth assay. The following applies: time 16-20 hrs. The class given is functional.
Data set [4] in a line: Hemolytic activity in human RBC assessed as hemolysis measured after 24 hrs. The following applies: red blood cells. In kind it is toxicity, cell-based, Erythrocyte.
A further data set concerns Erythrocyte. Nature of the data set: (§1) Hemolytic activity in mouse Red blood cells incubated for 1 hr by microplate reader assay. The class given is toxicity, cell-based. The following applies: erythrocyte, 1 h.
Data set [5] concerns Bacillus subtilis. The data set is described as follows: Antibacterial activity against Bacillus subtilis ATCC 23857 assessed as reduction in bacterial growth incubated for 18 to 20 hrs by Mueller Hinton broth dilution method. In kind it is functional. The conditions noted are these: time 18-20 hrs.
Data set [6] deals with Staphylococcus aureus. The data set is described as follows: Antibacterial activity against Staphylococcus aureus ATCC 25923 assessed as reduction in bacterial growth incubated for 18 to 20 hrs by Mueller Hinton broth dilution method. In kind it is functional. The conditions noted are these: time 18-20 hrs.
In data set [7] the test system is Pseudomonas aeruginosa. Nature of the data set: Antibacterial activity against Pseudomonas aeruginosa ATCC 27853 assessed as reduction in bacterial growth incubated for 18 to 20 hrs by Mueller Hinton broth dilution method. The class given is functional. The following applies: time 18-20 hrs.
Data set [8] relates to Escherichia coli. Nature of the data set: Antibacterial activity against Escherichia coli ATCC 25922 assessed as reduction in bacterial growth incubated for 18 to 20 hrs by Mueller Hinton broth dilution method. In kind it is functional. The following applies: time 18-20 hrs.
Data set [9] in a line: as §1. The class given is toxicity, cell-based, Erythrocyte. The conditions noted are these: red blood cells.
In data set [10] the test system is Staphylococcus aureus. The data set is described as follows: Antibacterial activity against Staphylococcus aureus ATCC 25923 assessed as reduction in bacterial cell growth measured for 18 hrs by Mueller-Hinton broth based two-fold serial dilution method. The class given is functional.
Data set [11] has as its system Pseudomonas aeruginosa. Nature of the data set: Antibacterial activity against Pseudomonas aeruginosa ATCC 27853 assessed as reduction in bacterial cell growth measured for 18 hrs by Mueller-Hinton broth based two-fold serial dilution method. The class given is functional.
For data set [12], the system named is Bacillus subtilis. Nature of the data set: Antibacterial activity against Bacillus subtilis ATCC 23857 assessed as reduction in bacterial cell growth measured for 18 hrs by Mueller-Hinton broth based two-fold serial dilution method. In kind it is functional.
Data set [13] has as its system Escherichia coli. Nature of the data set: Antibacterial activity against Escherichia coli ATCC 25922 assessed as reduction in bacterial cell growth measured for 18 hrs by Mueller-Hinton broth based two-fold serial dilution method. The class given is functional.
The next data set has as its system Klebsiella pneumoniae. The data set is described as follows: Antibacterial activity against Klebsiella pneumoniae ATCC 700603 assessed as reduction in bacterial cell growth measured for 18 hrs by Mueller-Hinton broth based two-fold serial dilution method. In kind it is functional.

With `CC[C@H](C)C[C@H](NC(=O)[C@H](CCCNC(=N)N)NC(=O)[C@H](CCCCN)NC(=O)[C@H](CC1CCCCC1)NC(=O)[C@H](CC(C)C)NC(=O)CN)C(=O)N[C@@H](CCCCN)C(=O)N[C@H](C(=O)N[C@@H](CC(C)C)C(=O)N[C@@H](CC(C)C)C(N)=O)[C@@H](C)O` (H-GL[Cha]KR[hIle]KTLL-NH2), the MIC (as a rule, the least concentration at which growth counts as inhibited) with Pseudomonas aeruginosa [1] amounted to 28.4 µM; with Staphylococcus aureus [2] it was 28.4 µM (≈ 34.3 µg/mL); in the data set with Enterococcus faecium, 28.4 µM (≈ 34.3 µg/mL); with Escherichia coli [3], 28.4 µM. Further, the HC50 – broadly, the concentration that lyses half of the red blood cells – at 24 h in data set [4] stood at 436 µM.

For `CC[C@H](C)[C@H](NC(=O)[C@H](CCCNC(=N)N)NC(=O)[C@H](CCCCN)NC(=O)[C@H](CC(C)C)NC(=O)[C@H](Cc1ccc2ccccc2c1)NC(=O)CN)C(=O)N[C@@H](CCCCN)C(=O)N[C@H](C(=O)N[C@@H](CC(C)C)C(=O)N[C@@H](CC(C)C)C(N)=O)[C@@H](C)O` (H-G[2Nal]LKRIKTLL-NH2), the minimum inhibitory concentration (MIC) in the data set on Pseudomonas aeruginosa [1] was 9.5 µM; in the data set with Staphylococcus aureus [2] it was 15.8 µM (≈ 19.6 µg/mL); with Enterococcus faecium it was 15.8 µM (≈ 19.6 µg/mL); in the data set on Escherichia coli [3], 15.8 µM. In [4], the concentration for 50% haemolysis (HC50) at 24 h came to 52.8 µM.

With `CC[C@H](C)C[C@H](NC(=O)[C@H](CCCNC(=N)N)NC(=O)[C@H](CCCCN)NC(=O)[C@H](CC(C)C)NC(=O)[C@H](CC1CCCCC1)NC(=O)CN)C(=O)N[C@@H](CCCCN)C(=O)N[C@H](C(=O)N[C@@H](CC(C)C)C(=O)N[C@@H](CC(C)C)C(N)=O)[C@@H](C)O` (H-G[Cha]LKR[hIle]KTLL-NH2), the MIC in the data set on Pseudomonas aeruginosa [1] worked out at 28.4 µM; in the data set with Staphylococcus aureus [2] it was 85.3 µM (≈ 103 µg/mL); in the data set with Enterococcus faecium, 15.8 µM (≈ 19.1 µg/mL); in the data set with Escherichia coli [3], 25 µM. The HC50 at 24 h in [4] amounted to 195 µM.

Regarding `CC(C)C[C@@H](NC(=O)[C@@H](CC(C)C)NC(=O)[C@@H](CCCCN)NC(=O)[C@@H](CCCCN)NC(=O)[C@@H](Cc1c[nH]c2ccccc12)NC(=O)[C@@H](Cc1c[nH]c2ccccc12)NC(=O)[C@@H](CCCCN)NC(=O)[C@@H](CC(C)C)NC(=O)[C@@H](CC(C)C)NC(=O)[C@H](N)CCCCN)C(N)=O` (H-[dK][dL][dL][dK][dW][dW][dK][dK][dL][dL]-NH2), in the data set with Erythrocyte, the HC10 was above 200 µM. For the same molecule, the minimum inhibitory concentration (MIC) with Bacillus subtilis [5] came to 4 µM (≈ 5.42 µg/mL); in the data set on Staphylococcus aureus [6], 8 µM (≈ 10.8 µg/mL); with Pseudomonas aeruginosa [7], 8 µM (≈ 10.8 µg/mL); in the data set on Escherichia coli [8] it was 64 µM (≈ 86.7 µg/mL).

For the molecule `CCCCCCCCC(=O)NCC(=O)N[C@@H](CC(C)C)C(=O)N(C)[C@@H](CC(C)C)C(=O)N[C@@H](CCCCN)C(=O)N[C@@H](CCCNC(=N)N)C(=O)N(C)[C@H](C(=O)N[C@@H](CCCCN)C(=O)N[C@H](C(=O)N[C@@H](CC(C)C)C(=O)N[C@@H](CC(C)C)C(N)=O)[C@@H](C)O)[C@@H](C)CC` (Nonanoyl-GL[NMeL]KR[NMeI]KTLL-NH2), the HC50 at 1 h in [9] was above 256 µM. Also, the MIC in the data set with Staphylococcus aureus [10] is 128 µM (≈ 169 µg/mL); in the data set on Pseudomonas aeruginosa [11] it was 32 µM (≈ 42.3 µg/mL); in the data set on Bacillus subtilis [12] it was 8 µM (≈ 10.6 µg/mL); in the data set with Escherichia coli [13], 128 µM (≈ 169 µg/mL); with Klebsiella pneumoniae it was above 128 µM.

The molecule `CCCCCCCCCCCCCCC(=O)NCC(=O)N[C@@H](CC(C)C)C(=O)N(C)[C@@H](CC(C)C)C(=O)N[C@@H](CCCCN)C(=O)N[C@@H](CCCNC(=N)N)C(=O)N(C)[C@H](C(=O)N[C@@H](CCCCN)C(=O)N[C@H](C(=O)N[C@@H](CC(C)C)C(=O)N[C@@H](CC(C)C)C(N)=O)[C@@H](C)O)[C@@H](C)CC` (Pentadecanoyl-GL[NMeL]KR[NMeI]KTLL-NH2) registered an HC50 at 1 h in data set [9] of 64 µM. The MIC with Staphylococcus aureus [10] was 8 µM (≈ 11.2 µg/mL); in the data set with Pseudomonas aeruginosa [11] it was 16 µM (≈ 22.5 µg/mL); in the data set with Bacillus subtilis [12], 4 µM (≈ 5.62 µg/mL); in the data set with Escherichia coli [13], 16 µM (≈ 22.5 µg/mL); in the data set with Klebsiella pneumoniae, 16 µM (≈ 22.5 µg/mL).

In the case of `CCCCCCCCCCCCC(=O)NCC(=O)N[C@@H](CC(C)C)C(=O)N(C)[C@@H](CC(C)C)C(=O)N[C@@H](CCCCN)C(=O)N[C@@H](CCCNC(=N)N)C(=O)N(C)[C@H](C(=O)N[C@@H](CCCCN)C(=O)N[C@H](C(=O)N[C@@H](CC(C)C)C(=O)N[C@@H](CC(C)C)C(N)=O)[C@@H](C)O)[C@@H](C)CC` (Tridecanoyl-GL[NMeL]KR[NMeI]KTLL-NH2), the 50% haemolytic concentration (HC50) at 1 h in [9] was 64 µM. In addition, the MIC in the data set with Staphylococcus aureus [10] amounted to 4 µM (≈ 5.51 µg/mL); in the data set with Pseudomonas aeruginosa [11], 8 µM (≈ 11 µg/mL); in the data set with Bacillus subtilis [12] it was 4 µM (≈ 5.51 µg/mL); with Escherichia coli [13], 8 µM (≈ 11 µg/mL); with Klebsiella pneumoniae, 32 µM (≈ 44.1 µg/mL).

In the case of `CCCCCCCCCCC(=O)NCC(=O)N[C@@H](CC(C)C)C(=O)N(C)[C@@H](CC(C)C)C(=O)N[C@@H](CCCCN)C(=O)N[C@@H](CCCNC(=N)N)C(=O)N(C)[C@H](C(=O)N[C@@H](CCCCN)C(=O)N[C@H](C(=O)N[C@@H](CC(C)C)C(=O)N[C@@H](CC(C)C)C(N)=O)[C@@H](C)O)[C@@H](C)CC` (Undecanoyl-GL[NMeL]KR[NMeI]KTLL-NH2), the HC50 at 1 h in data set [9] is above 256 µM. In addition, the MIC in the data set with Staphylococcus aureus [10] was found to be 16 µM (≈ 21.6 µg/mL); in the data set on Pseudomonas aeruginosa [11] it was 8 µM (≈ 10.8 µg/mL); in the data set with Bacillus subtilis [12], 4 µM (≈ 5.4 µg/mL); with Escherichia coli [13], 16 µM (≈ 21.6 µg/mL); in the data set with Klebsiella pneumoniae, 64 µM (≈ 86.4 µg/mL).
